# Experimental data taken from ChEMBL document CHEMBL1201862, “PubChem BioAssay data set” (2004).
# Calls of active or inactive are those of the source.
# Tests used:
# cells = type: functional
# [1] = cytotoxicity in HEK-293T cells, dose response, cytotoxicity control for BCR NF-kB inhibitor project, luminescence, B-cell screen hits (AID 489021); type: functional, cell-based;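 further: HEK-293T cells carrying an NF-kB luciferase reporter; cells exposed to compound for about 14 hours before viability readout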
# [2] = molecular target: Induced myeloid leukemia cell differentiation protein Mcl-1 (Homo sapiens, UniProt Q07820); type: functional
# Chain of Induced myeloid leukemia cell differentiation protein Mcl-1 (Q07820 whole entry): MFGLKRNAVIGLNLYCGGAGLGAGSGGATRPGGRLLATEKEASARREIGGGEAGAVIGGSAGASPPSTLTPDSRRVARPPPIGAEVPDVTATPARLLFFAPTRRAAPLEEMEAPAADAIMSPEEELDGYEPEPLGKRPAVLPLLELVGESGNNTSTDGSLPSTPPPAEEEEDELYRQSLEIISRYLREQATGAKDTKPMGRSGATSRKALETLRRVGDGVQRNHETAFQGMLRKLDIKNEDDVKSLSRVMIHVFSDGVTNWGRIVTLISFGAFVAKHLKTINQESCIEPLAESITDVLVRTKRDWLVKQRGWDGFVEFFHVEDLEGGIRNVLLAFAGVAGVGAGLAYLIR
# Aminopeptidase N = molecular target: T1, Aminopeptidase N (Plasmodium falciparum FcB1/Columbia, UniProt O96935); assay: P. falciparum M1AAP inhibitors, biochemical, fluorogenic H-Leu-NHMec substrate, 1536-well (AID 1445); design: species or system Plasmodium falciparum 3D7, 3D7
# T1 sequence (O96935 whole entry): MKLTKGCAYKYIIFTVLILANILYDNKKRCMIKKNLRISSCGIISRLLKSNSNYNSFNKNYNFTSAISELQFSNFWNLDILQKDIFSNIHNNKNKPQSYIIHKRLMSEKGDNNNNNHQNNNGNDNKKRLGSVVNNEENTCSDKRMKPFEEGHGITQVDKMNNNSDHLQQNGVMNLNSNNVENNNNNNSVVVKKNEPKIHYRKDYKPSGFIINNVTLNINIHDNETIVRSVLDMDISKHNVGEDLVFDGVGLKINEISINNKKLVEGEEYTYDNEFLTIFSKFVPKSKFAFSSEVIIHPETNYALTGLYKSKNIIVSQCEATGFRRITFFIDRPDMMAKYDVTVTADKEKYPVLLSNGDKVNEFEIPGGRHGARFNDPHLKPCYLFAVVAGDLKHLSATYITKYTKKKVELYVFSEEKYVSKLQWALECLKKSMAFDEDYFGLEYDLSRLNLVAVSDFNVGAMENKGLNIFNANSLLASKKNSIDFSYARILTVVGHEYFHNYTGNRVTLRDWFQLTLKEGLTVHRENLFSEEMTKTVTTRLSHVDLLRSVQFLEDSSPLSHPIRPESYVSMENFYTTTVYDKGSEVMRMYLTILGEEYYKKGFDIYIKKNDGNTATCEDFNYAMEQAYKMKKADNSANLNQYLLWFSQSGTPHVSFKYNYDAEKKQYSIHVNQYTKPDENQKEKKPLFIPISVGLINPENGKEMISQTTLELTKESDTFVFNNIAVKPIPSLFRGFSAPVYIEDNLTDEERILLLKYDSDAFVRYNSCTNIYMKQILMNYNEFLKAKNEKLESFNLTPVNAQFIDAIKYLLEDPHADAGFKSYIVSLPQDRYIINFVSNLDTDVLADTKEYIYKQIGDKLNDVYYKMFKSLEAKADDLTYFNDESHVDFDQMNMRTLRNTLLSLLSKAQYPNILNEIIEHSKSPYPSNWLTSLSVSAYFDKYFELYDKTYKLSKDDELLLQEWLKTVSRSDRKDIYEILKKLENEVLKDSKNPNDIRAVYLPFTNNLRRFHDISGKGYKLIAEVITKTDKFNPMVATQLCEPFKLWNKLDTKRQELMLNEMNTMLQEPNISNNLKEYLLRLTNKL
# [3] = molecular target: T2, Carboxy-terminal domain RNA polymerase II polypeptide A small phosphatase 1 (Homo sapiens, UniProt Q9GZU7); assay: inhibitors of CTDSP1, concentration-response testing, biochemical assay, absorbance-based, actives from ultra-high-throughput screening (AID 540297); type: functional
# T2 sequence (Q9GZU7 whole entry): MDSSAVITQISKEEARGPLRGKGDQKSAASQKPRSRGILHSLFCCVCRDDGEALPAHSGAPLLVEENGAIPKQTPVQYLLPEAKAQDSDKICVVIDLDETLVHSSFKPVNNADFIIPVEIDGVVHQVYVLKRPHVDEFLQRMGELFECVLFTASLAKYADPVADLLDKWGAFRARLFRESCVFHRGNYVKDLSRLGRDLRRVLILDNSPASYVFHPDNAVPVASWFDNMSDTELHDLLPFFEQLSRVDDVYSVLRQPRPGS
# SUMO-activating enzyme [4] = molecular target: T3, SUMO-activating enzyme (Homo sapiens, UniProt Q9UBT2); assay: SUMOylation inhibitor hit validation, confirmation, SUMOylation inhibitor project, biochemical, AlphaScreen (AID 2018); type: functional
# T3 sequence (Q9UBE0 whole entry): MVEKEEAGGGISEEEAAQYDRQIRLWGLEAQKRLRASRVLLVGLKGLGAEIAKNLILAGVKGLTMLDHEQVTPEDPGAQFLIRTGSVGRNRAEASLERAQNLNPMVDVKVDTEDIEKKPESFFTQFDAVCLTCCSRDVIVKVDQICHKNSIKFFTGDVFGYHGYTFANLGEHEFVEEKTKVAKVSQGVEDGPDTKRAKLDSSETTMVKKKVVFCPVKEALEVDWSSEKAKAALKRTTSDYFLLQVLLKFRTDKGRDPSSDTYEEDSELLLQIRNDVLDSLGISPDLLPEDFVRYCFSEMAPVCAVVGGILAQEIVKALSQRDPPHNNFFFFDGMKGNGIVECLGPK
# T3 sequence (Q9UBT2 whole entry): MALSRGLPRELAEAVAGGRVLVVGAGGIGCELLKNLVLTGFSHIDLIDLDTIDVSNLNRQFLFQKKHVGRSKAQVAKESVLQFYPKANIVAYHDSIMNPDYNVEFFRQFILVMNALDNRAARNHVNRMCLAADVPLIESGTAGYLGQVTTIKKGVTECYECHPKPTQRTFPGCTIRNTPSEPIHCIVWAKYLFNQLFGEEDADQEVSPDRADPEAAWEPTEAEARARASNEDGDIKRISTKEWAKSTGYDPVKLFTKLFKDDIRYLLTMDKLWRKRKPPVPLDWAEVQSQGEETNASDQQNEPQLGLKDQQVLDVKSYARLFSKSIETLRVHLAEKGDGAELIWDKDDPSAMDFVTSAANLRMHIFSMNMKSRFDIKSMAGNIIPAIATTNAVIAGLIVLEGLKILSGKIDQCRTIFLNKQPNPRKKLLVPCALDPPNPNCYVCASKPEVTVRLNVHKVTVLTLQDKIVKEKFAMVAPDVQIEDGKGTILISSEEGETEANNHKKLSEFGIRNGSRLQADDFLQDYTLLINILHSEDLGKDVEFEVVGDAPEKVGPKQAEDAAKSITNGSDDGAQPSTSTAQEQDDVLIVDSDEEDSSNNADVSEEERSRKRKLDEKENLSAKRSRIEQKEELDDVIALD
# SUMO-activating enzyme [5] = molecular target: T3, SUMO-activating enzyme; assay: inhibitors of in vitro SUMOylation cascade, primary screen, biochemical, HTRF, uHTS (AID 2006); type: protein-complex assay
# [6] = molecular target: T4, Ubiquitin-conjugating enzyme E2 N (Homo sapiens, UniProt P61088); type: functional
# T4 sequence (P61088 whole entry): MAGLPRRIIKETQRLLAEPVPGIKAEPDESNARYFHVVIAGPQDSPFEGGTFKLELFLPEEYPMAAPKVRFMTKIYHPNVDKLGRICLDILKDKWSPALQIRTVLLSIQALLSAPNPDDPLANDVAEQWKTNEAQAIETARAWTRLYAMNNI
# [7] = molecular target: T4, Ubiquitin-conjugating enzyme E2 N; type: functional; remark: listed apart in the source
# Bcl-2-related protein A1 = molecular target: T5, Bcl-2-related protein A1 (Mus musculus, UniProt Q07440); type: functional;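 further: confirmatory dose–response counterscreen on Bfl-1, used to check hits from a UBC13 polyubiquitin inhibitor campaign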
# T5 sequence (Q07440 whole entry): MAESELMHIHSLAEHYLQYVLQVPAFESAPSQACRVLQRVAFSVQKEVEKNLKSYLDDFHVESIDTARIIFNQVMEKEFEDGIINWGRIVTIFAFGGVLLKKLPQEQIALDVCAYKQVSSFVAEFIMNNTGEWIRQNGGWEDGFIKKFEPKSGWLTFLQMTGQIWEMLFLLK
# [8] = molecular target: Glyceraldehyde-3-phosphate dehydrogenase (Homo sapiens, UniProt P04406)
# Chain of Glyceraldehyde-3-phosphate dehydrogenase (P04406 whole entry): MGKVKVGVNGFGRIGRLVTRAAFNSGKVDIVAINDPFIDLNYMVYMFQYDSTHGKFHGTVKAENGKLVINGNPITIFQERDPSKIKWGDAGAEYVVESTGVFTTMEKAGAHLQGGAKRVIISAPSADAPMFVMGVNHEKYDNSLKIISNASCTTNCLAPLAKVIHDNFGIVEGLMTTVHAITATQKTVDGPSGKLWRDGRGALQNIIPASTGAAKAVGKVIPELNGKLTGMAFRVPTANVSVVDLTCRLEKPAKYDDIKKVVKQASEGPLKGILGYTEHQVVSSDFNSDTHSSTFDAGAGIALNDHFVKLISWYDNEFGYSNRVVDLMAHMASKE
# [9] = molecular target: T6, Microphthalmia-associated transcription factor (Homo sapiens, UniProt O75030); assay: TRPM1 promoter luciferase signal decrease, dose response, MITF inhibitor project, cell-based, SK-MEL-5, cherry-picked, set 3 (AID 493073); type: functional
# T6 sequence (O75030 whole entry): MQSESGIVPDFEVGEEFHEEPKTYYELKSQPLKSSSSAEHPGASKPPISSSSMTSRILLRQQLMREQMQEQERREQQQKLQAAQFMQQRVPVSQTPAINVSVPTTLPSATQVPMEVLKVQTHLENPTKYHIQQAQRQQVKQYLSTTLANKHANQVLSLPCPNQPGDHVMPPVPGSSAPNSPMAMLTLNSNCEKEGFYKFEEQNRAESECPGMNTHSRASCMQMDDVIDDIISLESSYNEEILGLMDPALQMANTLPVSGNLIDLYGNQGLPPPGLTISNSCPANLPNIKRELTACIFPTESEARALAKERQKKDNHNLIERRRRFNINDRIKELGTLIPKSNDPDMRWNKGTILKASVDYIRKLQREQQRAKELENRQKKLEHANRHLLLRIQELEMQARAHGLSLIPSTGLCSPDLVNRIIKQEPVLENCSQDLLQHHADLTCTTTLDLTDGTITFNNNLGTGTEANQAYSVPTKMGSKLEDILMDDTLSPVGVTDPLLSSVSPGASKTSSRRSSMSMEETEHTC
# Leucine aminopeptidase = molecular target: T7, Leucine aminopeptidase (Plasmodium falciparum 3D7, UniProt Q8IL11); assay: P. falciparum M17LAP inhibitors, primary screen, biochemical, fluorogenic H-Leu-NHMec substrate, 1536-well (AID 1619); type: functional
# T7 sequence (Q8IL11 whole entry): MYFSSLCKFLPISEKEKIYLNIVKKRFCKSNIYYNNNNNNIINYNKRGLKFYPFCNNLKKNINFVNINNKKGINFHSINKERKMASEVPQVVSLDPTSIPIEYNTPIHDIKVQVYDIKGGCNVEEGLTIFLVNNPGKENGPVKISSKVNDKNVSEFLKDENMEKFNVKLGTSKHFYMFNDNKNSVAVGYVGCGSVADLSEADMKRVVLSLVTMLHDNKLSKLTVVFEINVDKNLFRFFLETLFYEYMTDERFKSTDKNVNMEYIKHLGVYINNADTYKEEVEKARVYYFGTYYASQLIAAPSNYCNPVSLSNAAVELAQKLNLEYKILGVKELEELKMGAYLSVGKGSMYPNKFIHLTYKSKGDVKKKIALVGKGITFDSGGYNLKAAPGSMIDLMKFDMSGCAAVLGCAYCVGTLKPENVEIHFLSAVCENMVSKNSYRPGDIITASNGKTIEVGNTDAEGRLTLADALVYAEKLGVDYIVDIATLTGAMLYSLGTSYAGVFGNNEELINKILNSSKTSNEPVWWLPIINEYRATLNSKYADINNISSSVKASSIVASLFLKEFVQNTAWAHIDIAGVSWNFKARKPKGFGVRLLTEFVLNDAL
# BJ [10] = assay: cytotoxicity toward BJ-TERT fibroblasts, dose response, cell-based, RAS-independent, luminescence (AID 1933); type: functional; conditions: Homo sapiens
# BJ [11] = assay: cytotoxicity toward BJ-TERT-LT-ST fibroblasts, dose response, cell-based, RAS-independent, luminescence (AID 1935); type: functional; conditions: Homo sapiens;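 further: BJ fibroblasts immortalized with TERT plus LT and ST oncogenes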
# [12] = Luminescence Cell-Based Dose Confirmation HTS to Identify Activators of 5'UTR Stem-Loop Driven Alpha-Synuclein mRNA Translation in H4 Neuroglioblastoma Cells. [Related pubchem assays: 1829 (Project Summary), 1814 (Primary HTS)]; type: functional
# H4 = assay: Luminescence Cell-Based Dose Response HTS to Identify Activators of 5'UTR Stem-Loop Driven Prion Protein mRNA Translation in H4 Neuroglioblastoma Cells. [Related pubchem assays: 1829 (Project Summary), 1814 (Primary HTS)]; type: functional; conditions: Homo sapiens
# [13] = Luminescence Cell-Based Dose Response HTS to Identify Activators of Luciferase Translation or Activity in H4 […] Cells. [Related pubchem assays: 1829 (Project Summary), 1814 (Primary HTS)]; type: functional
# BJ [14] = assay: cells; type: functional, cell-based; conditions: Homo sapiens
# [15] = cytotoxicity toward DRD oncogenic fibroblasts, dose response, cell-based, non-viral oncogenic, luminescence (AID 1934); type: functional; conditions: Homo sapiens
# [16] = molecular target: T8, Calpain-2 catalytic subunit (Sus scrofa, UniProt P43367); assay: pig calpain II inhibitor potency, dose response, biochemical, fluorogenic peptide substrate (AID 1420); type: functional
# T8 sequence (P43367 whole entry): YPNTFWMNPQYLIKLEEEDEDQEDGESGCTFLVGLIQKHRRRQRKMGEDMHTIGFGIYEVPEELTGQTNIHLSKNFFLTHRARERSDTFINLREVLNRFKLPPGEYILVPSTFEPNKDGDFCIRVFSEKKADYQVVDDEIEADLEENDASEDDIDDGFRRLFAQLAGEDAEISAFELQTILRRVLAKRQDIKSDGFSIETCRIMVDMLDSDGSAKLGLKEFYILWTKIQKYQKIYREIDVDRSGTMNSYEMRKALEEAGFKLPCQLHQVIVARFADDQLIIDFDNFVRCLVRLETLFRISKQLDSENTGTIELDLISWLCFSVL
compound,measurement,setting,value
O=C(COC(=O)c1cc(Br)ccc1O)Nc1ccc2c(c1)OCO2,IC50,cells,22.1 µM (active)
CCOc1ccc(-c2nnc(SCC(=O)Nc3cc(C)on3)o2)cc1,IC50,[1],> 80 µM (inactive)
CS(=O)(=O)C1=NSC2=NC(=O)/C(=C\c3cccn3-c3ccc(Cl)cc3)C(=N)N21,IC50,[2],4.98 µM (active)
same,IC50,Aminopeptidase N,5.15 µM (active)
same,IC50,[3],5.93 µM (active)
O=C1NC(=S)NC(=O)C1=NNc1ccc(-c2ccccc2)cc1[N+](=O)[O-],IC50,[2],4.83 µM (active)
same,IC50,SUMO-activating enzyme [4],4.11 µM (active)
same,IC50,Aminopeptidase N,10.5 µM (active)
same,IC50,SUMO-activating enzyme [5],22.4 µM (active)
CC(C)CC(C(=O)NC(C)(C)C)N(CC1CCCO1)C(=O)c1snc(C(N)=O)c1N (configuration not stated),IC50,[6],13.4 µM (active)
same,IC50,[7],11.2 µM (active)
same,IC50,Bcl-2-related protein A1,> 20 µM (inactive)
CCOC(=O)c1c(C)[nH]c(C)c1C(=O)COC(=O)c1ccc([N+](=O)[O-])s1,IC50,cells,8.59 µM (active)
O=C1C(Cl)=C(N2CCN(CCO)CC2)C(=O)N1c1ccnc(Cl)c1,IC50,[8],> 50 µM (inconclusive)
O=C(C[n+]1cccc2ccccc21)c1ccc([N+](=O)[O-])cc1,AC50,[9],6.21 µM (active)
O=C(CCC1CCCCC1)Nc1nc[nH]n1,IC50,[8],> 10 µM (inconclusive)
Cc1cc(NC(=O)COc2ccccc2)ccc1Cl,IC50,cells,> 50 µM (active)
Cc1c(CCC(=O)N2CCC(C(=O)O)CC2)c(=O)oc2cc3oc4c(c3cc12)CCCC4,IC50,[1],> 80 µM (inactive)
CCOc1ccccc1Nc1nnc(SCC(=O)NC(Cc2c[nH]c3ccccc23)C(=O)O)s1 (configuration not stated),IC50,Leucine aminopeptidase,7.81 µM (active)
same,IC50,Aminopeptidase N,67.4 µM (active)
Cc1ccccc1CNC(=O)CCCC(=O)n1nc(C)c2ccccc21,IC50,[6],13.5 µM (active)
same,IC50,[7],20 µM (active)
same,IC50,Bcl-2-related protein A1,> 20 µM (inactive)
CCN(CC)S(=O)(=O)c1ccc(N2CCOCC2)c(NC(=O)c2[nH]c(C)c(C(C)=O)c2C)c1,IC50,[1],> 80 µM (inactive)
Cn1cc(C(=O)N/N=C/c2ccc3c(c2)OCO3)c2ccccc21,EC50,BJ [10],124 µM (active)
same,EC50,BJ [11],> 150 µM (inconclusive)
same,EC50,[12],> 120 µM (not active)
same,EC50,H4,5.85 µM (active)
same,EC50,[13],5.78 µM (active)
same,EC50,BJ [14],44.9 µM (active)
same,EC50,[15],19.6 µM (active)
Cc1cccc2c1c(/N=N/C(=N)S)c(O)n2C1OC(CO)C(O)C(O)C1O (configuration not stated),IC50,[6],10.7 µM (active)
same,IC50,[7],4.56 µM (active)
same,IC50,Bcl-2-related protein A1,> 20 µM (inactive)
O=C(Nc1ccc2oc(=O)ccc2c1)c1ccc(-c2cccc(Cl)c2)o1,IC50,[16],11.6 µM (not active)
same,IC50,SUMO-activating enzyme [4],15.8 µM (active)
same,IC50,SUMO-activating enzyme [5],6.77 µM (active)
